Legend:
VSMC cells = test: Chemotactic migration of VSMC (Transwell); assay type: cell-based, human; conditions: 100 nM for 24 hours, ox-LDL 40 μg/ml
Method: Chemotactic migration is another characteristic of atherosclerosis and can be used as another line of evidence of atherosclerotic change for the cultured VSMC cells. This experiment was assayed by using a microchemotactic chamber and polycarbonate filters with pores of […] in diameter (Transwell, Millipore). After incubated with microRNA-195 (Pre-miR miRNA, hsa-miR-195 (product ID PM10827), Ambion Inc.) (100 nM) or an inhibitor (100 nM) for 24 hours, the VSMC cells were trypsinized and suspended with a serum free medium. A volume (300 μl) of a 1×10^4 cell suspension was placed in the upper chamber, the medium containing ox-LDL (40 μg/ml, each) was placed in the lower and upper chamber. The cell suspension was incubated at a temperature of 37° C. under 5% CO2 in air for 24 hours. After incubation, the VSMC cells on the upper side of the filter were scraped off, and the cells that had directly migrated to the lower side of the filter were trypsinized. The cells were fixed with methanol and stained with a Giemsa solution (Merck). Quantification of chemotactic migration was performed using the hemocytometer.

endogenous microRNA-195 = test: Endogenous microRNA-195 in VSMC by quantitative real-time PCR, normalized to U44; assay type: cell-based, human; conditions: ox-LDL and simvastatin 1 nM for 24 hours
Method: Quantitative real-time PCR was performed in an ABI PRIZM 7500 sequence detection system in triplicates. The typical amplification program was carried out in a 20 μl reaction with a primer at a final concentration of 300 nM and probes of 200 nM. Serial dilutions of the control cDNA for generating standard curves ran in duplicate. Real-time PCR results were analyzed using ABI PRISM 7500 SDS software. Relative differences of microRNAs were quantified using the […] method. For graphical presentation, the 2^−ΔΔCt transformation was used according to the ABI user bulletin version #2. Expression values were depicted relatively to the value at baseline which was the earliest time point present in all the experiments.

| Compound | chemotactic migration, percentage of migrated cells compared to control medium cells (VSMC cells) [%] | endogenous microRNA-195 decrease versus ox-LDL-stimulated cells (endogenous microRNA-195) [fold] |
| --- | --- | --- |
| microRNA-195 inhibitor: 5′-GCCAATATTTCTGTGCTGCTA-3′ (SEQ ID NO: 6), Ambion; used to specifically bind to and inhibit endogenous microRNA-195 (listed as DNA, chemistry not given here) [reference compound] | 233.7 |  |
| CCC(C)(C)C(=O)O[C@H]1C[C@@H](C)C=C2C=C[C@H](C)[C@H](CC[C@@H]3C[C@@H](O)CC(=O)O3)[C@H]21 [simvastatin] |  | > 0.68 |
